From ChEMBL document CHEMBL1201862, “PubChem BioAssay data set” (2004)
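Method: 48-hour compound exposure of cells in 96-well plates, five concentrations, linear interpolation of endpoints. Abbreviation: GI50, concentration required for 50% inhibition of growth.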 The source made the active and inactive calls. No stated cut-off is given here; in the data, active = GI50 up to about 1.1 µM and inactive = higher.

How the values were obtained:
Assay in all cases: growth of human tumour cells (NCI), 48 h
[1] = system: 786-0
[2] = system: A498
[3] = system: A549
[4] = system: ACHN
[5] = system: BT-549
[6] = system: CAKI-1
[7] = system: CCRF-CEM
[8] = system: COLO 205
[9] = system: DU-145
[10] = system: EKVX
[11] = system: HCC 2998
[12] = system: HCT-116
[13] = system: HCT-15
[14] = system: HL-60
[15] = system: HOP-62
[16] = system: HOP-92
[17] = system: HT-29
[18] = system: Hs-578T
[19] = system: IGROV-1
[20] = system: K562
[21] = system: KM12
[22] = system: LOX IMVI
[23] = system: M14
[24] = system: MCF7
[25] = system: MDA-MB-231
[26] = system: MDA-MB-435
[27] = system: MDA-N
[28] = system: MOLT-4
[29] = system: Malme-3M
[30] = system: NCI-H226
[31] = system: NCI-H23
[32] = system: NCI-H460
[33] = system: NCI-H522
[34] = system: NCI/ADR-RES
[35] = system: OVCAR-3
[36] = system: OVCAR-4
[37] = system: OVCAR-5
[38] = system: OVCAR-8
[39] = system: PC-3
[40] = system: RPMI-8226
[41] = system: RXF 393
[42] = system: SF-268
[43] = system: SF-295
[44] = system: SF-539
[45] = system: SK-MEL-28
[46] = system: SK-MEL-2
[47] = system: SK-MEL-5
[48] = system: SK-OV-3
[49] = system: SN12C
[50] = system: SNB-19
[51] = system: SNB-75
[52] = system: SR
[53] = system: SW-620
[54] = system: T47D
[55] = system: TK-10
[56] = system: U-251
[57] = system: UACC-257
[58] = system: UACC-62
[59] = system: UO-31

Which GI50 [1] does the source give for `CC(=O)Nc1ccc2c3c(cc(O)c2c1)N(C(=O)CCCCCC(=O)Nc1ccc2c4c(cc(O)c2c1)N(C(=O)OC(C)(C)C)CC4CCl)CC3CCl` (configuration not stated) here?
Its GI50 is 2.04 µM (inactive).

And the GI50 [2]?
The GI50 was 1.64 µM (inactive).

And the GI50 [3]?
The GI50 was 12.3 µM (inactive).

What about the GI50 [4] of the same compound?
Its GI50 is 3.54 µM (inactive).

And the GI50 [5]?
The GI50 was 1.87 µM (inactive).

What about the GI50 [6] of the same compound?
The GI50 was > 100 µM (inactive).

And the GI50 [7]?
Its GI50 is 0.0995 µM (active).

And the GI50 [8]?
Its GI50 is 1.99 µM (inactive).

What about the GI50 [9] of the same compound?
Its GI50 is 0.463 µM (active).

And the GI50 [10]?
Its GI50 is 41.9 µM (inactive).

And the GI50 [11]?
Its GI50 is 1.42 µM (inactive).

What about the GI50 [12] of the same compound?
Its GI50 is 1.67 µM (inactive).

And the GI50 [13]?
Its GI50 is over 100 µM.

And the GI50 [14]?
The GI50 was 0.355 µM (active).

What about the GI50 [15] of the same compound?
The GI50 was 1.81 µM (inactive).

What about the GI50 [16] of the same compound?
Its GI50 is 3.59 µM (inactive).

What about the GI50 [17] of the same compound?
The GI50 was 3.15 µM (inactive).

And the GI50 [18]?
The GI50 was 3.94 µM (inactive).

What about the GI50 [19] of the same compound?
The GI50 was 8.05 µM (inactive).

And the GI50 [20]?
The GI50 was 3.3 µM (inactive).

And the GI50 [21]?
Its GI50 is 2.73 µM (inactive).

What about the GI50 [22] of the same compound?
Its GI50 is 1.92 µM (inactive).

And the GI50 [23]?
Its GI50 is 4.09 µM (inactive).

What about the GI50 [24] of the same compound?
The GI50 was 0.233 µM (active).

What about the GI50 [25] of the same compound?
Its GI50 is 4.33 µM (inactive).

And the GI50 [26]?
The GI50 was 1.63 µM (inactive).

What about the GI50 [27] of the same compound?
The GI50 was 1.53 µM (inactive).

And the GI50 [28]?
The GI50 was 0.0585 µM (active).

What about the GI50 [29] of the same compound?
Its GI50 is 2.17 µM (inactive).

And the GI50 [30]?
The GI50 was 1.55 µM (inactive).

What about the GI50 [31] of the same compound?
The GI50 was 0.8 µM (active).

What about the GI50 [32] of the same compound?
Its GI50 is 0.625 µM (active).

And the GI50 [33]?
The GI50 was 1.05 µM (active).

What about the GI50 [34] of the same compound?
The GI50 was > 100 µM (inactive).

And the GI50 [35]?
Its GI50 is 1.57 µM (inactive).

And the GI50 [36]?
The GI50 was 5.36 µM (inactive).

And the GI50 [37]?
The GI50 was 10 µM (inactive).

What about the GI50 [38] of the same compound?
Its GI50 is 2.35 µM (inactive).

And the GI50 [39]?
The GI50 was 2.99 µM (inactive).

What about the GI50 [40] of the same compound?
Its GI50 is 3.37 µM (inactive).

What about the GI50 [41] of the same compound?
Its GI50 is 1.24 µM (inactive).

What about the GI50 [42] of the same compound?
The GI50 was 0.646 µM (active).

What about the GI50 [43] of the same compound?
Its GI50 is 5.73 µM (inactive).

What about the GI50 [44] of the same compound?
Its GI50 is 2.37 µM (inactive).

And the GI50 [45]?
Its GI50 is 6.28 µM (inactive).

What about the GI50 [46] of the same compound?
The GI50 was 1.76 µM (inactive).

And the GI50 [47]?
The GI50 was 1.33 µM (inactive).

And the GI50 [48]?
Its GI50 is 3.54 µM (inactive).

And the GI50 [49]?
Its GI50 is 3.45 µM (inactive).

And the GI50 [50]?
The GI50 was 1.6 µM (inactive).

What about the GI50 [51] of the same compound?
Its GI50 is 1.49 µM (inactive).

And the GI50 [52]?
Its GI50 is 0.118 µM (active).

What about the GI50 [53] of the same compound?
The GI50 was 2.17 µM (inactive).

And the GI50 [54]?
The GI50 was 0.541 µM (active).

And the GI50 [55]?
Its GI50 is 18 µM (inactive).

And the GI50 [56]?
The GI50 was 0.74 µM (active).

What about the GI50 [57] of the same compound?
Its GI50 is 3.37 µM (inactive).

And the GI50 [58]?
The GI50 was 1.39 µM (inactive).

What about the GI50 [59] of the same compound?
Its GI50 is > 100 µM (inactive).

For `CCc1nc(N)nc(N)c1-c1ccc2nnn(O)c2c1`, which GI50 [1] is on record?
The GI50 was > 100 µM (inactive).

What about the GI50 [2] of the same compound?
The GI50 was > 100 µM (inactive).

And the GI50 [3]?
The GI50 was > 73.6 µM (inactive).

What about the GI50 [4] of the same compound?
Its GI50 is > 100 µM (inactive).

And the GI50 [5]?
The GI50 was > 100 µM (inactive).

What about the GI50 [6] of the same compound?
The GI50 was > 100 µM (inactive).

What about the GI50 [7] of the same compound?
The GI50 was > 100 µM (inactive).

And the GI50 [8]?
The GI50 was > 100 µM (inactive).

And the GI50 [9]?
Its GI50 is > 100 µM (inactive).

And the GI50 [10]?
Its GI50 is > 100 µM (inactive).

And the GI50 [11]?
Its GI50 is > 100 µM (inactive).

What about the GI50 [12] of the same compound?
The GI50 was > 83.8 µM (inactive).

And the GI50 [13]?
The GI50 was over 100 µM.

And the GI50 [14]?
Its GI50 is > 100 µM (inactive).

And the GI50 [15]?
The GI50 was > 100 µM (inactive).

And the GI50 [16]?
The GI50 was > 100 µM (inactive).

And the GI50 [17]?
The GI50 was > 89.1 µM (inactive).

What about the GI50 [18] of the same compound?
Its GI50 is > 100 µM (inactive).

What about the GI50 [19] of the same compound?
The GI50 was > 100 µM (inactive).

And the GI50 [20]?
Its GI50 is 76.2 µM (inactive).

What about the GI50 [21] of the same compound?
The GI50 was > 100 µM (inactive).

And the GI50 [22]?
The GI50 was > 100 µM (inactive).

And the GI50 [23]?
Its GI50 is > 100 µM (inactive).

And the GI50 [24]?
The GI50 was > 100 µM (inactive).

What about the GI50 [25] of the same compound?
Its GI50 is > 100 µM (inactive).

And the GI50 [26]?
The GI50 was > 100 µM (inactive).

What about the GI50 [27] of the same compound?
Its GI50 is > 100 µM (inactive).

And the GI50 [28]?
The GI50 was > 100 µM (inactive).

What about the GI50 [30] of the same compound?
Its GI50 is > 100 µM (inactive).

What about the GI50 [31] of the same compound?
The GI50 was > 100 µM (inactive).

What about the GI50 [32] of the same compound?
The GI50 was > 72.8 µM (inactive).

And the GI50 [33]?
The GI50 was > 100 µM (inactive).

And the GI50 [34]?
The GI50 was > 100 µM (inactive).

What about the GI50 [35] of the same compound?
Its GI50 is > 100 µM (inactive).

And the GI50 [36]?
Its GI50 is > 100 µM (inactive).

And the GI50 [37]?
Its GI50 is > 100 µM (inactive).

What about the GI50 [38] of the same compound?
Its GI50 is > 100 µM (inactive).

What about the GI50 [39] of the same compound?
Its GI50 is > 100 µM (inactive).

And the GI50 [40]?
The GI50 was > 100 µM (inactive).

And the GI50 [41]?
The GI50 was > 100 µM (inactive).

And the GI50 [42]?
The GI50 was > 100 µM (inactive).

What about the GI50 [43] of the same compound?
Its GI50 is > 100 µM (inactive).

And the GI50 [44]?
Its GI50 is > 100 µM (inactive).

What about the GI50 [45] of the same compound?
The GI50 was > 100 µM (inactive).

What about the GI50 [46] of the same compound?
The GI50 was > 100 µM (inactive).

What about the GI50 [47] of the same compound?
Its GI50 is > 100 µM (inactive).

And the GI50 [48]?
The GI50 was > 100 µM (inactive).

What about the GI50 [49] of the same compound?
The GI50 was > 100 µM (inactive).

What about the GI50 [50] of the same compound?
The GI50 was > 100 µM (inactive).

What about the GI50 [51] of the same compound?
Its GI50 is > 100 µM (inactive).

And the GI50 [52]?
The GI50 was > 100 µM (inactive).

What about the GI50 [53] of the same compound?
The GI50 was > 100 µM (inactive).

What about the GI50 [54] of the same compound?
Its GI50 is > 100 µM (inactive).

What about the GI50 [55] of the same compound?
The GI50 was > 100 µM (inactive).

And the GI50 [56]?
The GI50 was > 100 µM (inactive).

And the GI50 [57]?
Its GI50 is > 100 µM (inactive).

What about the GI50 [58] of the same compound?
The GI50 was > 100 µM (inactive).

And the GI50 [59]?
Its GI50 is > 100 µM (inactive).
